In patent publication US5726319A, “Biphenyl substituted dipeptide analogs promote release of growth hormone” (Merck & Co., Inc., priority 1995, dated 1998) one finds EC50 data, which are given here for 10 compounds.

The structures appear in SMILES notation. Where a name gives a salt, the structure may show the parent alone.

The first assay concerns rat pituitary cells. Nature of the assay: growth hormone secretion in rat pituitary cell cultures (GH release, RIA). Type of assay: cell-based. Particulars: 0.25 h; GH release from cultured rat anterior pituitary cells, 15 min incubation at 37° C., rat GH measured by double antibody RIA; read-out: ED50 (the source's name). The procedure:
The bioassay employed for the determination of growth hormone secretion in rat pituitary cell cultures has been previously described--Cheng, K.; Chan, W. W.-S; Barreto, A.; Convey, E. M.; Smith, R. G. Endocrinology 124: 2791-2798 (1989)--and is summarized here: The Wistar male rats (150-200 grams) were obtained from Charles River Laboratories (Wilmington, Mass). Rats were maintained at a constant temperature (25° C.) on a 14-hr light, 10-hr dark cycle. Rat chow and water were available ad libitum. The animals were sacrificed by decapitation and anterior lobes of the pituitary quickly removed. Rat pituitary cells were isolated from pituitaries by enzymatic digestion with 0.2% collagenase and 0.2% hyaluronidase in Hank's Balanced Salt Solution. For culture, the cells were suspended in culture medium and adjusted to 1.5×10^5 cells/ml, and 1.0 ml of this suspension was placed in each well of a 24-well tray (Costar, Cambridge, Mass.). Cells were maintained in a humidified 5% CO2 -95% air atmosphere at 37° C. for 3 to 4 days. The culture medium consisted of DMEM containing 0.37% NaHCO3, 10% horse serum, 2.5% fetal bovine serum, 1% non-essential amino acids, 1% glutamine, 1% nystatin, and 0.1% gentamycin. On the day of an experiment, cells were washed twice 11/2 hrs prior to and once more immediately before the start of the experiment with the above culture medium containing 25 mM HEPES, pH 7.4. GH release was initiated by adding 1 ml of fresh medium containing test agents to each well in quadruplicate. Incubation was carded out at 37° C. for 15 min. After incubation, medium was removed and centrifuged at 2,000×g for 15 min to remove any cellular material. The supernatant fluid was removed and assayed for GH content. Rat GH in culture medium was measured by a double antibody RIA procedure using materials obtained from Dr. A. F. Parlow (Harbor-UCLA medical Center, Torrance, Calif.) and expressed in terms of the standard rat GH RP-2. ED50 values for test compounds were computed by fitting a four-parameter logistic function to the dose-response curve. Least squares estimates of the four-parameter logistic function coefficients and their variances were derived using the iterative algorithm described by Bates and Watts.
For `CC(C)(N)C(=O)N[C@H](Cc1c[nH]c2ccccc12)C(=O)NCc1ccc(-c2ccccc2NC(=O)NCCO)cc1` [Example 16, (R)-α-[(2-Amino-2-methyl-1-oxopropyl)amino]-N-[[2'-[[(2-hydroxyethylamino)carbonyl]amino][1,1'-biphenyl]-4-yl]-methyl]-1H-indole-3-propanamide, trifluoroacetate], the EC50 is greater than 0.5 µM. On the same count and under the same terms, the result for `CN(Cc1ccc(-c2ccccc2-c2nnn[nH]2)cc1)C(=O)[C@@H](Cc1c[nH]c2ccccc12)NC(=O)C(C)(C)N` [Example 13, (R)-α-[(2-Amino-2-methyl-1-oxopropyl)amino]-N-methyl-N-[[2'-(1H-tetrazol-5-yl)[1,1'-biphenyl]-4-yl]methyl]-1H-indole-3-propanamide, trifluoroacetate] reads greater than 0.5 µM. On to `CC(C)(N)CC(=O)NCC(=O)NCc1ccc(-c2ccccc2-c2nnn[nH]2)cc1` [Example 5, 2-[(3-Amino-3-methyl-1-oxobutyl)amino]-N-[[2'-(1H-tetrazol-5-yl)[1,1'-biphenyl]-4-yl]methyl]acetamide, trifluoroacetate], for which the EC50 was greater than 0.5 µM. As for `CNC(=O)Nc1ccccc1-c1ccc(CNC(=O)[C@@H](COCc2ccccc2)NC(=O)C(C)(C)N)cc1` [Example 23, (R)-α-[(2-Amino-2-methyl-1-oxopropyl]amino]-N-[[2'-[[(methylamino)carbonyl]amino][1,1'-biphenyl]-4-yl]methyl]-3-[(phenylmethyl)oxy]propanamide, trifluoroacetate], the EC50 was greater than 0.5 µM.

The same assay, now with this note: GH release from cultured rat anterior pituitary cells, 15 min incubation at 37° C., rat GH measured by double antibody RIA; read-out: ED50 (the source's name).
Regarding `CCN(Cc1ccc(-c2ccccc2-c2nnn[nH]2)cc1)C(=O)[C@@H](CCc1ccccc1)NC(=O)C(C)(C)N.O=C(O)C(F)(F)F` [Example 18, (R)-α-[(2-Amino-2-methyl-1-oxypropyl)amino]-N-ethyl-N-[[2'-(1H-tetrazol-5-yl)-[1,1'-biphenyl]-4-yl]methyl]benzenebutanamide, trifluoroacetate], the EC50 is on record as greater than 0.5 µM. Same read-out and setting: then `CC(C)(N)C(=O)N[C@H](COCc1ccccc1)C(=O)NCc1ccc(-c2ccccc2NC(=O)NCCO)cc1.O=C(O)C(F)(F)F` [Example 25, (R)-α-[(2-Amino-2-methyl-1-oxopropyl)amino]-N-[[(2'-[(2-hydroxyethylamino)carbonyl]amino][1,1'-biphenyl]-4-yl]-methyl]-3-[(phenylmethyl)oxy]propanamide, trifluoracetate], with greater than 0.5 µM; and `CCCN(Cc1ccc(-c2ccccc2-c2nnn[nH]2)cc1)C(=O)[C@@H](CCc1ccccc1)NC(=O)C(C)(C)N.O=C(O)C(F)(F)F` [Example 22, (R)-α-[(2-Amino-2-methyl-1-oxypropyl)amino]-N-[[2'-(1H-tetrazol-5-yl)-[1,1'-biphenyl]-4-yl]methyl]-N-(propyl)benzenebutanamide, trifluoroacetate], with less than 0.5 µM; and `CNC(=O)Nc1ccccc1-c1ccc(CNC(=O)[C@@H](COCc2ccccc2)NC(=O)CC(C)(C)N)cc1.O=C(O)C(F)(F)F` [Example 24], with greater than 0.5 µM. On the same count and under the same terms, then `CC(C)(N)C(=O)N[C@H](COCc1ccccc1)C(=O)NCc1ccc(-c2ccccc2-c2nnn[nH]2)cc1.O=C(O)C(F)(F)F` [Example 27, (R)-α-[(2-Amino-2-methyl-1-oxypropyl)amino]-N-[[2'-(1H-tetrazol-5-yl)-[1,1'-biphenyl]-4-yl]methyl]-3-[(phenylmethyl)oxy]propanamide, trifluoracetate], with greater than 0.5 µM. As to `CCN(Cc1ccc(-c2ccccc2CNC(=O)NC)cc1)C(=O)[C@@H](CCc1ccccc1)NC(=O)C(C)(C)N.O=C(O)C(F)(F)F` [Example 20, (R)-α-[(2-Amino-2-methyl-1-oxypropyl)amino]-N-ethyl-N-[[(2'-[((methylamino)carbonyl)aminomethyl])-[1,1'-biphenyl]-4-yl]methyl]benzenebutanamide,trifluoroacetate], the EC50 is reported as less than 0.5 µM.
